# Test results from ChEMBL document CHEMBL1144953, “Anti-androgens with full antagonistic activity toward human prostate tumor LNCaP cells with mutated androgen receptor” (Bioorg Med Chem Lett, 2003).
# pKd: −log10 of the molar value.
# Target: T1, Androgen receptor (Homo sapiens, UniProt P10275)
# T1 sequence (P10275 whole entry): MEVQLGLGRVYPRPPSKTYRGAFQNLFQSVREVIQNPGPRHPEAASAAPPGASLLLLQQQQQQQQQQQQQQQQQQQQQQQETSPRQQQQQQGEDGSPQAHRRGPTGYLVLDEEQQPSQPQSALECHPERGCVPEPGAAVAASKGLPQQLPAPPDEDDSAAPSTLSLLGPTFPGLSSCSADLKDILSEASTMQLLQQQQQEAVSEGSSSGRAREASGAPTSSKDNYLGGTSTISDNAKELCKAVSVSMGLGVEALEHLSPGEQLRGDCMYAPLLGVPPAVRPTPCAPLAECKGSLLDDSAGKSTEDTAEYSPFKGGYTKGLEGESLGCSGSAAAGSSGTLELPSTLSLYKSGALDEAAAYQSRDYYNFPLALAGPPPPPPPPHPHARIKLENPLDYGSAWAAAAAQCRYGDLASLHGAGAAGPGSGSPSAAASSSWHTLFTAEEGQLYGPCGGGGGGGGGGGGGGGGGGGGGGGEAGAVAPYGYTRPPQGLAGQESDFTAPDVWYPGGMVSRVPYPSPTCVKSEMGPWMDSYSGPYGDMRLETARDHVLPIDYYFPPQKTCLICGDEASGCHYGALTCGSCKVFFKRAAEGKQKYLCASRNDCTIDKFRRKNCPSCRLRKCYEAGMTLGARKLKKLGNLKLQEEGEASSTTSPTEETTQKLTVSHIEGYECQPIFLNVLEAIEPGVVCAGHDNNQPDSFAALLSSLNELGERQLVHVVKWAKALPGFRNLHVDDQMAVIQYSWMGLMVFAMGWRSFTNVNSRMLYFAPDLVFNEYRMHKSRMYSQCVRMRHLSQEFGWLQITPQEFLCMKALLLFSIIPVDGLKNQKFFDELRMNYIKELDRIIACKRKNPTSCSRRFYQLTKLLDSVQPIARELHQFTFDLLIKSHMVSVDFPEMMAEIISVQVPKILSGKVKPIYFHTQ
# Assay: Dissociation constant against GST-hARLBD was measured in SC-3 cell by using [3H]testosterone as radioligand
# Format: cell-based
row,Structure (SMILES),pKd
1,O=C1ON=C(c2ccc(O)cc2)/C1=C/c1ccc(N2CCCC2)cc1,8.85
2,O=C1ON=C(c2ccc(F)cc2)/C1=C/c1ccc(N2CCCC2)cc1,8.85
3,CCCCN(CCCC)c1ccc(/C=C2\C(=O)ON=C2c2ccccc2)cc1,8.85
4,O=C1ON=C(c2ccccc2F)/C1=C/c1ccc(N2CCCC2)cc1,8.85
